Key:
Type in all cases: functional
[1] = tested on: Pneumocystis carinii; assay: Efficacy of compound was evaluated in rat infected with Pneumocystis carinii at a dose of 2 mg/Kg administered intraperitoneally
[2] = tested on: Pneumocystis carinii; assay: Efficacy of compound was evaluated in rat infected with Pneumocystis carinii at a dose of 2 mg/Kg administered subcutaneously
[3] = tested on: Pneumocystis carinii; assay: Efficacy of compound was evaluated in rat infected with Pneumocystis carinii at a dose of 2 mg/Kg administered orally

CCCCCCCCCCCCCCCCOc1ccc(Oc2c(OC)cc(NC(C)CCCN)c3nccc(C)c23)cc1 (stereo unspecified)
Infection score [1]: 4.5

COc1cc(NC(C)CCCN)c2ncccc2c1 (stereo unspecified) [PRIMAQUINE]
Infection score [2]: 4.3

COc1cc(Cc2cnc(N)nc2N)cc(OC)c1OC.Cc1cc(NS(=O)(=O)c2ccc(N)cc2)no1 [CO-TRIMOXAZOLE]
Infection score [1]: 1.31

CCCCCCCOc1ccc(Oc2c(OC)cc(NC(C)CCCN)c3nccc(C)c23)cc1 (stereo unspecified)
Infection score [1]: 0.71
Infection score [3]: 1.25

CCOc1ccc(Oc2c(OC)cc(NC(C)CCCN)c3nccc(C)c23)cc1 (stereo unspecified)
Infection score [1]: 0
